From patent publication US9802960B2 (MILLENNIUM PHARMACEUTICALS, INC., priority 2014, dated 2017)

Biological target: Human VPS34 (Homo sapiens (Human), UniProt Q8NEB9)
Assay: Human VPS34 enzyme assay (Adapta TR-FRET)
Format: biochemical
Conditions: compound concentration 1.11 μM; read-out: Percent Inhibition

Chain of Human VPS34 (Q8NEB9 whole entry): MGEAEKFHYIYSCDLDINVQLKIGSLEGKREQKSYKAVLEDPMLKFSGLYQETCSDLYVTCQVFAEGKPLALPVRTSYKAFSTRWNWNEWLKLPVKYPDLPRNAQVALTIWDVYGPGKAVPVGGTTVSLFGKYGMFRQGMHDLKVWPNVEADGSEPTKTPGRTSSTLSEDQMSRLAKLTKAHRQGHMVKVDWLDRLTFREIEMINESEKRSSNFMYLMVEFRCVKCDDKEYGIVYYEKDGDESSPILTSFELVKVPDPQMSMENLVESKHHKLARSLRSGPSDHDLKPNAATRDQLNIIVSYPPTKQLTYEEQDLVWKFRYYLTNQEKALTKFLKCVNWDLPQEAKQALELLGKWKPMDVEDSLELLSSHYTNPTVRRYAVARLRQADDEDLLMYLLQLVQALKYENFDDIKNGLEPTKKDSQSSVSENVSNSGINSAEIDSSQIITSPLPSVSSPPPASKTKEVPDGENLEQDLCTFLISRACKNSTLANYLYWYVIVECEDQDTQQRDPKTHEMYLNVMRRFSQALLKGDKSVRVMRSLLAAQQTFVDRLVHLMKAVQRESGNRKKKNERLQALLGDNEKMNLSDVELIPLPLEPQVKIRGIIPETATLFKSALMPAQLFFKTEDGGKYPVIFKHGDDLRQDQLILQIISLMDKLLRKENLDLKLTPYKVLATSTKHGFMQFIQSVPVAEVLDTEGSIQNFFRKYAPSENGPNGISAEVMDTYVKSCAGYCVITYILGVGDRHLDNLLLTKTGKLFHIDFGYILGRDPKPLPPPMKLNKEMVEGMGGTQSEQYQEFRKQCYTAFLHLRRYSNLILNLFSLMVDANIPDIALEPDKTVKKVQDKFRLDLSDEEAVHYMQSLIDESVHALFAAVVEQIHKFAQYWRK

Compound | inhibition at 1.11 µM
CC(=O)Nc1cc(-c2cnc(C)c(N(CC3CC3)S(=O)(=O)C3CC3)c2)ccn1 [Compound I-83, N-{5-[(cyclopropylmethyl)(cyclopropylsulfonyl)amino]-6-methyl-3,4′-bipyridin-2′-yl}acetamide] | 82%
CC(=O)Nc1cc(-c2cnc(C)c(NS(=O)(=O)c3ccc(C)cc3F)c2)ccn1 [Compound I-182, N-(5-{[(2-fluoro-4-methylphenyl)sulfonyl]amino}-6-methyl-3,4′-bipyridin-2′-yl)acetamide] | > 99%
Cc1nccc(Nc2cc(-c3cnc(C)c(C(=O)NCC4CC4)c3)ccn2)n1 [Compound I-285, N-(cyclopropylmethyl)-6-methyl-2′-((2-methylpyrimidin-4-yl)amino)-[3,4′-bipyridine]-5-carboxamide] | 85%
CC(=O)Nc1cc(-c2cnc(Cl)c(S(=O)(=O)NC(C)(C)C)c2C)ccn1 [Compound I-410, N-[5-(tert-butylsulfamoyl)-6-chloro-4-methyl-3,4′-bipyridin-2′-yl]acetamide] | 96%
CC(=O)Nc1cc(-c2cnc(N(C)C)c(NS(=O)(=O)c3ccc(F)cc3F)c2)ccn1 [Compound I-25, N-[5-{[(2,4-diflurophenyl)sulfonyl]amino}-6-(dimethylamino)-3,4′-bipyridin-2′-yl]acetamide] | > 99%
CC(=O)Nc1cc(-c2cnc(C)c(NS(=O)(=O)c3ccc(F)cc3F)c2)c(F)cn1 [Compound I-161, N-(5-{[(2,4-difluorophenyl)sulfonyl]amino}-5′-fluoro-6-methyl-3,4′-bipyridin-2′-yl)acetamide] | > 99%
CC(=O)Nc1cc(-c2cnc(C)c(S(N)(=O)=O)c2)ccn1 [Compound I-395, N-(6-methyl-5-sulfamoyl-3,4′-bipyridin-2′-yl)acetamide] | > 99%
Cc1nccc(Nc2cc(-c3cnc(C)c(NC(=O)c4ccc(F)cc4F)c3)ccn2)n1 [Compound I-249, 2,4-difluoro-N-{6-methyl-2′-[(2-methylpyrimidin-4-yl)amino]-3,4′-bipyridin-5-yl}benzamide] | 85%
CC(=O)Nc1cc(-c2cnc(C)c(NS(=O)(=O)c3ccc(Cl)cc3Cl)c2)ccn1 [Compound I-30, N-(5-{[(2,4-dichlorophenyl)sulfonyl]amino}-6-methyl-3,4′-bipyridin-2′-yl)acetamide] | > 99%
CC(=O)Nc1cc(-c2cnc(N)c(S(=O)(=O)NC3CCCCC3)c2)ccn1 [Compound I-101, N-[6-amino-5-(cyclohexylsulfamoyl)-3,4′-bipyridin-2′-yl]acetamide] | > 99%
Cc1ncc(-c2ccnc(NC(=O)C3CC3(F)F)c2)cc1NS(=O)(=O)N(C)C (centres unmarked) [Compound I-244, N-{5-[(dimethylsulfamoyl)amino]-6-methyl-3,4′-bipyridin-2′-yl}-2,2-difluorocyclopropanecarboxamide] | 82%
CC(=O)Nc1cc(-c2cnc3c(c2)S(=O)(=O)N[C@@H](c2ccccc2)CO3)ccn1 [Compound I-334, (S)-N-[4-(1,1-dioxido-3-phenyl-3,4-dihydro-2H-pyrido[2,3-b][1,4,5]oxathiazepin-8-yl)pyridin-2-yl]acetamide] | 82%
Cc1nccc(Nc2cc(-c3cnc(Cl)c(C(=O)N4CCC4)c3C)ccn2)n1 [Compound I-457, azetidin-1-yl{6-chloro-4-methyl-2′-[(2-methylpyrimidin-4-yl)amino]-3,4′-bipyridin-5-yl}methanone] | 95%
CCN(c1cc(-c2ccnc(NC(C)=O)c2)cnc1C)S(=O)(=O)C1CC1 [Compound I-26, N-{5-[(cyclopropylsulfonyl)(ethyl)amino]-6-methyl-3,4′-bipyridin-2′-yl}acetamide] | > 99%
CNC(=O)c1cc(-c2ccnc(NC(C)=O)c2)cnc1N [Compound I-57, 2′-acetamido-6-amino-N-methyl-3,4′-bipyridine-5-carboxamide] | > 99%
Cc1nccc(Nc2cc(-c3cnc(C)c(C(N)=O)c3)ccn2)n1 [Compound I-280, 6-methyl-2′-[(2-methylpyrimidin-4-yl)amino]-3,4′-bipyridine-5-carboxamide] | 83%
Cc1ncc(-c2ccnc(Nc3ccn(C)n3)c2)cc1NS(=O)(=O)c1ccc(F)cc1F [Compound I-301, 2,4-difluoro-N-{6-methyl-2′-[(1-methyl-1H-pyrazol-3-yl)amino]-3,4′-bipyridin-5-yl}benzenesulfonamide] | 96%
CC(=O)Nc1cc(-c2cncc(C(=O)C3CC3)c2)ccn1 [Compound I-8, N-[5-(cyclopropylcarbonyl)-3,4′-bipyridin-2′-yl]acetamide] | > 99%
Cc1ccc(Nc2cc(-c3cnc(C)c(NS(=O)(=O)c4ccc(F)cc4F)c3)ccn2)nn1 [Compound I-307, 2,4-difluoro-N-{6-methyl-2′-[(6-methylpyridazin-3-yl)amino]-3,4′-bipyridin-5-yl}benzenesulfonamide] | > 99%
CC(=O)Nc1cc(-c2cnc(N)c(S(=O)(=O)N3CCOCC3)c2)ccn1 [Compound I-24, N-[6-amino-5-(morpholin-4-ylsulfonyl)-3,4′-bipyridin-2′-yl]acetamide] | > 99%
CC(=O)Nc1cc(-c2cnc(C)c(NS(=O)(=O)N(C)c3ccccc3)c2)ccn1 [Compound I-494, N-(6-methyl-5-{[methyl(phenyl)sulfamoyl]amino}-3,4′-bipyridin-2′-yl)acetamide] | 91%
CC(=O)Nc1cc(-c2cnc3[nH]cc(S(=O)(=O)N4CCCC4)c3c2)ccn1 [Compound I-158, N-{4-[3-(pyrrolidin-1-ylsulfonyl)-1H-pyrrolo[2,3-b]pyridin-5-yl]pyridin-2-yl}acetamide] | > 99%
Cc1c(-c2ccnc(Nc3ccnc(C4CC4)n3)c2)cnc(Cl)c1C(=O)O [Compound I-369, 6-chloro-2′-((2-cyclopropylpyrimidin-4-yl)amino)-4-methyl-[3,4′-bipyridine]-5-carboxylic acid] | 97%
CC(=O)Nc1cc(-c2cnc(C)c(NS(=O)(=O)c3cc(F)ccc3F)c2)ccn1 [Compound I-52] | > 99%
CC(=O)Nc1cc(-c2cnc(C)c(N3CCNS3(=O)=O)c2)ccn1 [Compound I-352, N-[5-(1,1-dioxido-1,2,5-thiadiazolidin-2-yl)-6-methyl-3,4′-bipyridin-2′-yl]acetamide] | 92%
CC(=O)Nc1cc(-c2cncc(S(=O)(=O)N3CCN(C)CC3)c2)ccn1 [Compound I-481, N-{5-[(4-methylpiperazin-1-yl)sulfonyl]-3,4′-bipyridin-2′-yl}acetamide] | > 99%
CCc1ccc(S(=O)(=O)Nc2cc(-c3ccnc(NC(C)=O)c3)cnc2C)cc1 [Compound I-44, N-(5-{[(4-ethylphenyl)sulfonyl]amino}-6-methyl-3,4′-bipyridin-2′-yl)acetamide] | > 99%
CC(=O)Nc1cc(-c2cnc(Cl)c(NS(=O)(=O)c3cccc4ncccc34)c2C)ccn1 [Compound I-437, N-{6-chloro-4-methyl-5-[(quinolin-5-ylsulfonyl)amino]-3,4′-bipyridin-2′-yl}acetamide] | > 99%
COc1ncc(-c2ccnc(NC(C)=O)c2)cc1S(=O)(=O)NC12CC(C1)C2 [Compound I-470, N-[5-(bicyclo[1.1.1]pent-1-ylsulfamoyl)-6-methoxy-3,4′-bipyridin-2′-yl]acetamide] | > 99%
